Active and inactive are the calls of the source. No rule for the calls is given here.
Assay: mammalian cell viability loss – absorbance, serum and serum-free conditions, cytotoxicity control for DAGLb inhibitor project, dose response (AID 602337)
Conditions: absorbance readout

| SMILES | CC50 (with serum) | CC50 (without serum) |
| --- | --- | --- |
| COc1ccccc1-c1ccc(-c2cn(C(=O)N3CCCCC3Cc3ccccc3)nn2)cc1 (stereo not drawn) | 3.1 µM | > 100 µM (inactive) |
| O=C(N1CCCCC1c1ccccc1)n1cc(-c2ccc(-c3ccccc3)cc2)nn1 (stereo not drawn) | > 50 µM (inactive) | > 100 µM (inactive) |
| O=C(N1CCCCC1Cc1ccccc1)n1cc(-c2ccc(-c3ccccc3)cc2)nn1 (stereo not drawn) | 4.2 µM | > 100 µM (inactive) |
| COc1ccc(-c2ccc(-c3cn(C(=O)N4CCCCC4c4ccccc4)nn3)cc2)cc1 (stereo not drawn) | 5.9 µM | > 100 µM (inactive) |

Source: PubChem BioAssay AID602337 (The Scripps Research Institute Molecular Screening Center, 2012)
